Reference: paper PMC10974533, “Cationicity Enhancement on the Hydrophilic Face of Ctriporin Significantly Reduces Its Hemolytic Activity and Improves the Antimicrobial Activity against Antibiotic-Resistant ESKAPE Pathogens” (Toxins, 2024)
Where a SMILES comes first, the peptide text is derived from it.

Key:
Format in all cases: cell-based
S. aureus 891 = test: MIC, broth dilution, clinical isolate; settings: MRSA clinical isolate
Procedure: (§1) The standard strains, including S. aureus ATCC29213 and ATCC25923, E. faecalis ATCC29212, E. coli ATCC25922 and ATCC35218, A. baumannii ATCC19606, K. pneumoniae ATCC700603, and P. aeruginosa ATCC27853, were purchased from the China Center of Type Culture Collection (CCTCC). The clinical strains of the ESKAPE pathogens were isolated from the affiliated hospitals of Hubei University of Medicine. All of them were stored at −80 °C before use. The drug sensitivities of the clinical strains were determined by the Kirby–Bauer test.
(§2) The MICs were determined using the broth dilution method according to the guidelines of the Clinical and Laboratory Standards Institute (CLSI), as described in the previous studies. Briefly, the bacterial cells were incubated in Mueller–Hinton broth (MHB, Oxoid, Basingstoke, UK) at 37 °C and 150 rpm to the mid-growth phase and diluted to achieve a final concentration of 5 × 10^5 colony-forming units per milliliter (CFU/mL). Then, the cells were mixed with each peptide in different concentrations (1, 2, 4, 8, 16, 32, and 64 μg/mL). […] All experiments were repeated at least three times.

E. coli 2687 = test: MIC, broth dilution, clinical isolate; settings: ESBL clinical isolate
Procedure: as §1, §2

S. epidermidis 6943 = test: MIC, broth dilution, clinical isolate; settings: MRSE clinical isolate
Procedure: as §1, §2

S. epidermidis 9092 = test: MIC, broth dilution, clinical isolate; settings: MRSE clinical isolate
Procedure: as §1, §2

E. faecium 898 = test: MIC, broth dilution, clinical isolate; settings: MDR clinical isolate
Procedure: as §1, §2

E. coli 2678 = test: MIC, broth dilution, clinical isolate; settings: ESBL clinical isolate
Procedure: as §1, §2

K. pneumoniae 9126 = test: MIC, broth dilution, clinical isolate; settings: CRE clinical isolate
Procedure: as §1, §2

S. aureus 9124 = test: MIC, broth dilution, clinical isolate; settings: MRSA clinical isolate
Procedure: as §1, §2

P. aeruginosa 9014 = test: MIC, broth dilution, clinical isolate; settings: CRE/MDR clinical isolate
Procedure: as §1, §2

A. baumannii 19618 = test: MIC, broth dilution, clinical isolate; settings: CRE/MDR clinical isolate
Procedure: as §1, §2

K. pneumoniae ATCC700603 = test: MIC, broth dilution, standard strain; settings: broth dilution (CLSI), MHB, 37 °C, 16–20 h
Procedure: as §1, §2

E. faecium ATCC29212 = test: MIC, broth dilution, standard strain; settings: broth dilution (CLSI), MHB, 37 °C, 16–20 h
Procedure: as §1, §2

S. aureus ATCC29213 = test: MIC, broth dilution, standard strain; settings: broth dilution (CLSI), MHB, 37 °C, 16–20 h
Procedure: as §1, §2

A. baumannii ATCC19606 = test: MIC, broth dilution, standard strain; settings: broth dilution (CLSI), MHB, 37 °C, 16–20 h
Procedure: as §1, §2

P. aeruginosa ATCC27853 = test: MIC, broth dilution, standard strain; settings: broth dilution (CLSI), MHB, 37 °C, 16–20 h
Procedure: as §1, §2

S. aureus ATCC25923 = test: MIC, broth dilution, standard strain; settings: broth dilution (CLSI), MHB, 37 °C, 16–20 h
Procedure: as §1, §2

E. coli ATCC35218 = test: MIC, broth dilution, standard strain; settings: broth dilution (CLSI), MHB, 37 °C, 16–20 h
Procedure: as §1, §2

E. coli ATCC25922 = test: MIC, broth dilution, standard strain; settings: broth dilution (CLSI), MHB, 37 °C, 16–20 h
Procedure: as §1, §2

[1] = tested on: human red blood cells (hRBC); test: Hemolytic activity determination; settings: 256 μg/mL peptide, 2% (v/v) hRBC, 37 °C, 1 h, OD540, 1% Triton X-100 = 100%; average ± standard error of three independent experiments
Procedure: Figure 2 Hemolytic activities of Ctriporin and its analogs against human red blood cells (hRBC). Hemolytic activities of Ctriporin (solid circle), CM1 (open circle), CM2 (open square), CM3 (upward triangle), CM4 (downward triangle), CM5 (half solid circle), CM6 (half solid square), and CM7 (half solid triangle), were measured against 2% (v/v) human red blood cells. The peptide concentrations are 0, 2, 4, 8, 16, 32, 64, 128, 256, and 512 μg/mL. The cells treated with 1% Triton X-100 were treated as 100% hemolysis. All experiments were repeated three times, and the data shown are the average ± standard error.
The hemolytic activities of the peptides were determined against human red blood cells (hRBCs). As described, sodium citrate-anticoagulated hRBCs were washed three times with 0.9% sodium chloride and diluted to a final concentration of 4% (v/v). Then, an equal volume of hRBC solutions was mixed with an equal volume of each peptide in a series of concentrations (0, 2, 4, 8, 16, 32, 64, 128, 256, and 512 μg/mL). After co-incubation at 37 °C for 1 h, the degree of hemolysis of the peptides was determined by detecting the release of hemoglobin from the damaged hRBCs by measuring the optical density at 540 nm (OD540). hRBCs in 0.9% sodium chloride and 1% Triton X-100 were considered 0% and 100% hemolysis, respectively. The results shown are the average ± standard error of data derived from three independent experiments. The percent hemolysis was calculated according to the following equation [53, 54]:Hemolysis (%) = 100 × (Asample − Ablank)/(Apositive − Ablank)

[2] = broth dilution (CLSI), MHB, 5 × 10^5 CFU/mL, 37 °C, 16–20 h, OD630
[3] = 5 × 10^5 CFU/mL, OD630, repeated at least three times

CC[C@H](C)[C@H](NC(=O)[C@H](C)NC(=O)CNC(=O)[C@@H]1CCCN1C(=O)[C@@H](NC(=O)[C@H](CC(C)C)NC(=O)CNC(=O)[C@H](Cc1c[nH]c2ccccc12)NC(=O)[C@H](CC(C)C)NC(=O)[C@@H](N)Cc1ccccc1)[C@@H](C)CC)C(=O)N[C@@H](CO)C(=O)N[C@@H](C)C(=O)N[C@H](C(=O)N[C@H](C(=O)N[C@@H](CO)C(=O)N[C@@H](CC(C)C)C(=O)N[C@H](C(=O)N[C@@H](CCCCN)C(=O)N[C@@H](CCCCN)C(N)=O)[C@@H](C)CC)[C@@H](C)O)C(C)C [Ctriporin] (H-FLWGLIPGAISAVTSLIKK-NH2; N-terminus assumed)
MICs (S. aureus 891; [2]): 16 µg/mL | MICs (S. aureus 891; value in parentheses): 8.0 µM | MICs (E. coli 2687; [2]): > 64 µg/mL | MICs (E. coli 2687; value in parentheses): > 31.8 µM | MICs (S. epidermidis 6943; [2]): 8 µg/mL | MICs (S. epidermidis 6943; value in parentheses): 4.0 µM | MICs (S. epidermidis 9092; [2]): 8 µg/mL | MICs (S. epidermidis 9092; value in parentheses): 4.0 µM | MICs (E. faecium 898; [2]): 16 µg/mL | MICs (E. faecium 898; value in parentheses): 8.0 µM | MICs (E. coli 2678; [2]): 64 µg/mL | MICs (E. coli 2678; value in parentheses): 31.8 µM | MICs (K. pneumoniae 9126; [2]): > 64 µg/mL | MICs (K. pneumoniae 9126; value in parentheses): > 31.8 µM | MICs (S. aureus 9124; [2]): 8 µg/mL | MICs (S. aureus 9124; value in parentheses): 4.0 µM | MICs (P. aeruginosa 9014; [2]): > 64 µg/mL | MICs (P. aeruginosa 9014; value in parentheses): > 31.8 µM | MICs (A. baumannii 19618; [2]): 32 µg/mL | MICs (A. baumannii 19618; value in parentheses): 15.9 µM | MICs (K. pneumoniae ATCC700603; [3]): > 64 µg/mL | MICs (K. pneumoniae ATCC700603; value in parentheses): > 31.8 µM | MICs (E. faecium ATCC29212; [3]): 64 µg/mL | MICs (E. faecium ATCC29212; value in parentheses): 31.8 µM | MICs (S. aureus ATCC29213; [3]): 16 µg/mL | MICs (S. aureus ATCC29213; value in parentheses): 8.0 µM | MICs (A. baumannii ATCC19606; [3]): 16 µg/mL | MICs (A. baumannii ATCC19606; value in parentheses): 8.0 µM | MICs (P. aeruginosa ATCC27853; [3]): > 64 µg/mL | MICs (P. aeruginosa ATCC27853; value in parentheses): > 31.8 µM | MICs (S. aureus ATCC25923; [3]): 32 µg/mL | MICs (S. aureus ATCC25923; value in parentheses): 15.9 µM | MICs (E. coli ATCC35218; [3]): > 64 µg/mL | MICs (E. coli ATCC35218; value in parentheses): > 31.8 µM | MICs (E. coli ATCC25922; [3]): 64 µg/mL | MICs (E. coli ATCC25922; value in parentheses): 31.8 µM | Hemolysis% at 256 μg/mL [1]: 90.6 ± 11.8%
